Measured values taken from patent publication US8476449B2, “Radioactive iodine labeled organic compound or salt thereof” (Nihon Medi-Physics Co., Ltd., priority 2010, dated 2013).
Where two headings read alike, the source gives them in different places.

Columns and labels:
tau protein aggregate = tau protein aggregate (Homo sapiens, UniProt P10636); conditions: tau 0.37 μmol/L, incubated 1 to 1.5 hours, PD-10 column
Protocol: Mixed solutions of a tau protein aggregate (final concentration 0.37 μmol/L, prepared in Example 9) or an non-aggregated tau protein (final concentration 0.37 μmol/L) and radioactive iodine-labeled compound 1 (2.0 kBq (0.055 μCi)), radioactive iodine-labeled compound 2 (20 kBq (0.55 μCi)) or radioactive iodine-labeled form 3 (2.0 kBq (0.055 μCi)) were incubated for 1 hour to 1.5 hours, and then subjected to size exclusion chromatography (PD-10 column (GE Healthcare Japan), eluent: phosphate buffered-saline (PBS)). Subsequently, the radioactivity of an eluted fraction of the tau protein aggregate or the non-aggregated tau protein was measured in a γ counter.

Aβ42 aggregate = molecular target: T1, Aβ42 aggregate (Homo sapiens, UniProt P05067); assay: Evaluation experiment of binding to amyloid β (filter radioactivity); conditions: Aβ42 aggregate 30 nmol/L, incubation 3 hours
T1 construct: Aβ (1-42) peptide; purchased Peptide Institute, Inc
T1 sequence (P05067 672-713 limits assumed): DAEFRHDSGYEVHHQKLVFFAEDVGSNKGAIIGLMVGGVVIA
Protocol: 0.5 mg of Aβ (1-42) peptide (purchased from Peptide Institute, Inc.) was dissolved in 2 mL of a PBS buffer containing 1 mmol/L of EDTA and incubated at 37° C. for 42 hours, thus preparing an Aβ42 aggregate. A glass tube was charged with a 10 vol % ethanol aqueous solution (900 μL), Aβ42 aggregate (50 μL, final concentration 30 nmol/L), and radioactive iodine-labeled compound 1, radioactive iodine-labeled compound 2, or radioactive iodine-labeled compound 3 (each 50 μL, 0.018-0.097 μCi), and incubation was carried out for 3 hours. B/F separation was carried out using a cell harvester (Brandel, M-24), and the radioactivity on the filter was measured in a γ counter. The proportion (%) of the radioactivity count on the filter relative to the radioactivity count of each sample used was determined, and binding of each compound to the Aβ42 aggregate was evaluated.
As a control, 4-dimethylamino-4′-iodochalcone (hereinafter, called a chalcone derivative) was prepared in accordance with a method described in the literature (Ono et al., Bioorg Med Chem, 15, 6802-6809, 2007), and the same experiment was carried out (radioactivity count in sample: […]-0.37 kBq (0.023-0.01 μCi)).

[1] = mice
Protocol: Mice were decapitated after 2, 10, 30, and 60 minutes, and then each organ was then removed after blood collection, and radiation counts were measured in a γ counter.

[2] = 2 minutes after tail vein administration
[3] = 10 minutes after tail vein administration
[4] = 30 minutes after tail vein administration
[5] = 60 minutes after tail vein administration

tau protein aggregate, sequence (P10636 1-441 isoform P10636-8): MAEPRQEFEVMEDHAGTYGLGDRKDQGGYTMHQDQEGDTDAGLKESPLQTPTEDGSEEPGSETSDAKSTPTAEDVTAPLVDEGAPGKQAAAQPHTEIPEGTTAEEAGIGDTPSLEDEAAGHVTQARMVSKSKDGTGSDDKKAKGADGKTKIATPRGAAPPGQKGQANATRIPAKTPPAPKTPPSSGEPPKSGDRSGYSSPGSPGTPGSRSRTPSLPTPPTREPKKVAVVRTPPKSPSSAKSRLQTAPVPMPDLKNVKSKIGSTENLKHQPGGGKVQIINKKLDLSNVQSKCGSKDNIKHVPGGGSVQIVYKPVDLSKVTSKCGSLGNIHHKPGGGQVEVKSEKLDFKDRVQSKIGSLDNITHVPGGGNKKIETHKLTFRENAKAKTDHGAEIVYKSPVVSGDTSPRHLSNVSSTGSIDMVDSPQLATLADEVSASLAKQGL

CCOC(=O)CN1C(=O)/C(=C/c2ccc(-c3cccc([125I])c3)o2)SC1=S [Radioactive iodine-labeled compound 1, (Z)-Ethyl-2-(5-((5-(3-(^125I)iodophenyl)furan-2-yl)methylene)-4-oxo-2-thioxothiazolidin-3-yl) acetate]
Radioactivity of eluted fraction: aggregated tau vs non aggregated tau vs buffer (tau protein aggregate): specifically binding to a tau protein aggregate | Binding to the Aβ42 aggregate (proportion of radioactivity count on the filter) (Aβ42 aggregate): significantly lower | Amount of radioactivity in organ: Blood [1, 2]: 6.70 ± 0.53 % ID/g | Amount of radioactivity in organ: Blood [1, 3]: 3.58 ± 0.37 % ID/g | Amount of radioactivity in organ: Blood [1, 4]: 2.27 ± 0.44 % ID/g | Amount of radioactivity in organ: Blood [1, 5]: 1.59 ± 0.14 % ID/g | Amount of radioactivity in organ: Brain [1, 2]: 0.23 ± 0.02 % ID/g | Amount of radioactivity in organ: Brain [1, 3]: 0.16 ± 0.01 % ID/g | Amount of radioactivity in organ: Brain [1, 4]: 0.15 ± 0.03 % ID/g | Amount of radioactivity in organ: Brain [1, 5]: 0.11 ± 0.02 % ID/g | Amount of radioactivity in organ: Heart [1, 2]: 9.41 ± 0.49 % ID/g | Amount of radioactivity in organ: Heart [1, 3]: 5.05 ± 0.39 % ID/g | Amount of radioactivity in organ: Heart [1, 4]: 2.38 ± 0.38 % ID/g | Amount of radioactivity in organ: Heart [1, 5]: 1.39 ± 0.19 % ID/g | Amount of radioactivity in organ: Intestine [1, 2]: 1.77 ± 0.33 % ID/g | Amount of radioactivity in organ: Intestine [1, 3]: 7.97 ± 1.24 % ID/g | Amount of radioactivity in organ: Intestine [1, 4]: 15.1 ± 1.82 % ID/g | Amount of radioactivity in organ: Intestine [1, 5]: 21.0 ± 2.73 % ID/g | Amount of radioactivity in organ: Kidney [1, 2]: 8.50 ± 0.83 % ID/g | Amount of radioactivity in organ: Kidney [1, 3]: 7.64 ± 0.69 % ID/g | Amount of radioactivity in organ: Kidney [1, 4]: 6.42 ± 1.17 % ID/g | Amount of radioactivity in organ: Kidney [1, 5]: 3.91 ± 0.18 % ID/g | Amount of radioactivity in organ: Liver [1, 2]: 43.1 ± 2.07 % ID/g | Amount of radioactivity in organ: Liver [1, 3]: 29.5 ± 2.17 % ID/g | Amount of radioactivity in organ: Liver [1, 4]: 14.7 ± 2.27 % ID/g | Amount of radioactivity in organ: Liver [1, 5]: 11.3 ± 0.87 % ID/g | Amount of radioactivity in organ: Lung [1, 2]: 13.6 ± 1.00 % ID/g | Amount of radioactivity in organ: Lung [1, 3]: 4.44 ± 0.52 % ID/g | Amount of radioactivity in organ: Lung [1, 4]: 2.31 ± 0.46 % ID/g | Amount of radioactivity in organ: Lung [1, 5]: 1.56 ± 0.22 % ID/g | Amount of radioactivity in organ: Pancreas [1, 2]: 1.74 ± 0.19 % ID/g | Amount of radioactivity in organ: Pancreas [1, 3]: 1.75 ± 0.18 % ID/g | Amount of radioactivity in organ: Pancreas [1, 4]: 1.16 ± 0.17 % ID/g | Amount of radioactivity in organ: Pancreas [1, 5]: 0.73 ± 0.08 % ID/g | Amount of radioactivity in organ: Spleen [1, 2]: 6.70 ± 0.54 % ID/g | Amount of radioactivity in organ: Spleen [1, 3]: 4.11 ± 0.80 % ID/g | Amount of radioactivity in organ: Spleen [1, 4]: 2.66 ± 0.84 % ID/g | Amount of radioactivity in organ: Spleen [1, 5]: 1.94 ± 0.40 % ID/g | Amount of radioactivity in organ: Stomach [1, 2]: 0.75 ± 0.17 % ID/g | Amount of radioactivity in organ: Stomach [1, 3]: 1.53 ± 0.44 % ID/g | Amount of radioactivity in organ: Stomach [1, 4]: 3.65 ± 0.78 % ID/g | Amount of radioactivity in organ: Stomach [1, 5]: 4.51 ± 0.38 % ID/g

CCOC(=O)CN1C(=O)/C(=C/c2ccc(-c3cccc([125I])c3)o2)NC1=S [Radioactive iodine-labeled compound 2, (Z)-Ethyl-2-(4-((5-(3-(^125I)iodophenyl)furan-2-yl)methylene)-5-oxo-2-thioxoimidazolidin-l-yl) acetate]
Radioactivity of eluted fraction: aggregated tau vs non aggregated tau vs buffer (tau protein aggregate): specifically binding to a tau protein aggregate | Binding to the Aβ42 aggregate (proportion of radioactivity count on the filter) (Aβ42 aggregate): significantly lower | Amount of radioactivity in organ: Blood [1, 2]: 9.49 ± 0.82 % ID/g | Amount of radioactivity in organ: Blood [1, 3]: 2.38 ± 0.88 % ID/g | Amount of radioactivity in organ: Blood [1, 4]: 1.79 ± 0.11 % ID/g | Amount of radioactivity in organ: Blood [1, 5]: 1.50 ± 0.10 % ID/g | Amount of radioactivity in organ: Brain [1, 2]: 0.57 ± 0.07 % ID/g | Amount of radioactivity in organ: Brain [1, 3]: 0.32 ± 0.02 % ID/g | Amount of radioactivity in organ: Brain [1, 4]: 0.18 ± 0.02 % ID/g | Amount of radioactivity in organ: Brain [1, 5]: 0.10 ± 0.03 % ID/g | Amount of radioactivity in organ: Heart [1, 2]: 7.02 ± 1.23 % ID/g | Amount of radioactivity in organ: Heart [1, 3]: 2.05 ± 0.29 % ID/g | Amount of radioactivity in organ: Heart [1, 4]: 1.19 ± 0.39 % ID/g | Amount of radioactivity in organ: Heart [1, 5]: 1.44 ± 0.39 % ID/g | Amount of radioactivity in organ: Intestine [1, 2]: 1.85 ± 0.26 % ID/g | Amount of radioactivity in organ: Intestine [1, 3]: 7.88 ± 1.46 % ID/g | Amount of radioactivity in organ: Intestine [1, 4]: 17.7 ± 2.22 % ID/g | Amount of radioactivity in organ: Intestine [1, 5]: 23.4 ± 5.37 % ID/g | Amount of radioactivity in organ: Kidney [1, 2]: 9.21 ± 0.68 % ID/g | Amount of radioactivity in organ: Kidney [1, 3]: 9.11 ± 1.15 % ID/g | Amount of radioactivity in organ: Kidney [1, 4]: 3.86 ± 0.85 % ID/g | Amount of radioactivity in organ: Kidney [1, 5]: 2.68 ± 0.75 % ID/g | Amount of radioactivity in organ: Liver [1, 2]: 32.2 ± 1.67 % ID/g | Amount of radioactivity in organ: Liver [1, 3]: 32.1 ± 2.09 % ID/g | Amount of radioactivity in organ: Liver [1, 4]: 22.6 ± 3.42 % ID/g | Amount of radioactivity in organ: Liver [1, 5]: 20.2 ± 1.93 % ID/g | Amount of radioactivity in organ: Lung [1, 2]: 10.8 ± 1.28 % ID/g | Amount of radioactivity in organ: Lung [1, 3]: 3.89 ± 0.32 % ID/g | Amount of radioactivity in organ: Lung [1, 4]: 2.09 ± 0.43 % ID/g | Amount of radioactivity in organ: Lung [1, 5]: 1.70 ± 0.45 % ID/g | Amount of radioactivity in organ: Pancreas [1, 2]: 1.79 ± 0.27 % ID/g | Amount of radioactivity in organ: Pancreas [1, 3]: 0.98 ± 0.08 % ID/g | Amount of radioactivity in organ: Pancreas [1, 4]: 0.56 ± 0.10 % ID/g | Amount of radioactivity in organ: Pancreas [1, 5]: 0.45 ± 0.08 % ID/g | Amount of radioactivity in organ: Spleen [1, 2]: 9.16 ± 2.04 % ID/g | Amount of radioactivity in organ: Spleen [1, 3]: 12.2 ± 2.28 % ID/g | Amount of radioactivity in organ: Spleen [1, 4]: 13.6 ± 4.29 % ID/g | Amount of radioactivity in organ: Spleen [1, 5]: 10.0 ± 2.49 % ID/g | Amount of radioactivity in organ: Stomach [1, 2]: 0.93 ± 0.36 % ID/g | Amount of radioactivity in organ: Stomach [1, 3]: 3.39 ± 3.03 % ID/g | Amount of radioactivity in organ: Stomach [1, 4]: 3.39 ± 2.98 % ID/g | Amount of radioactivity in organ: Stomach [1, 5]: 5.32 ± 2.68 % ID/g

CN(C)c1ccc(/C=C/C(=O)c2ccc(I)cc2)cc1 [chalcone derivative, 4-dimethylamino-4′-iodochalcone, reference compound]
Binding to the Aβ42 aggregate (proportion of radioactivity count on the filter) (Aβ42 aggregate): exhibited binding to the Aβ42 aggregate
